The text below walks through data of patent US4496551A (priority 1983, dated 1985).

In one data set the test system is Helminthosporium maydis. Briefly: southern corn leaf blight control on corn seedlings. It is filed as in vivo. The conditions noted are these: Bipolaris maydis, 168 h. The gist of the method:
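Corn seedlings were sprayed to run-off with 100 ppm compound (6% acetone, 250 ppm TREM 014), inoculated next day with H. maydis spores, then kept 24 h at 20° in saturated humidity and 7 more days in a growth room. Lesions were rated as disease score.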

The subject of another data set is peanut seedlings. Put plainly: phytotoxicity on peanut seedlings. It is filed as in vivo. The conditions noted are these: 100 ppm. Details: key: B: Phytotoxic burn. How it is done: Compounds of the previous examples were again dissolved in acetone in an amount equal to 6% of the final volume and then suspended at a concentration of 100 ppm in purified water containing 250 ppm of the surfactant TREM 014 (polyhydric alcohol esters). This suspension was sprayed to the point of run-off on peanut seedlings. The following day, the plants were inoculated with a spore suspension of Cercospora arachidicola, causal agent of peanut early leafspot, and incubated in a saturated humidity chamber at 27° for 24 hours and then in a growth room for an additional 14 days, when disease ratings were made. Treated plants from successful treatments had few or no leafspots while the untreated plants had numerous leafspots on each leaf.

The next data set has as its system Pyricularia oryzae. Put plainly: whole plant or invertebrate. It is filed as in vivo. As to conditions: 168 h, read-out: % Control of Rice Blast.
A further data set has as its system Erysiphe cichoracearum. Briefly: cucumber powdery mildew control on cucumber seedlings. The format is in vivo. As to conditions: Golovinomyces cichoracearum, 168 h, 7 days. Put shortly:
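Compounds at 100 ppm in water with 6% acetone and 250 ppm TREM 014 surfactant, sprayed to run-off on cucumber seedlings. Inoculation with Erysiphe cichoracearum spores the following day; disease rated after 7 days in a growth room against untreated plants.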

A further data set concerns Cercospora arachidicola. Briefly: peanut early leafspot control on peanut seedlings. It is filed as in vivo. The conditions noted are these: Mycosphaerella arachidis, 336 h. Put shortly:
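Compounds dissolved in acetone (6% of final volume) and suspended at 100 ppm in water with 250 ppm TREM 014, sprayed to run-off on seedlings. Cercospora arachidicola inoculated next day; 24 h saturated humidity at 27°, then 14 days growth room before disease and leafspot rating.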

The subject of a further data set is Phytophthora infestans. Briefly: whole plant or invertebrate. The format is in vivo. As to conditions: Phytophthora infestans, in Solanum lycopersicum, 168 h, read-out: % Control of Tomato Late Blight.
The test system of the next data set is Rhizoctonia solani. Briefly: rice sheath blight control on rice seedlings. It is filed as in vivo. The conditions noted are these: Rhizoctonia solani, 168 h, 7 days. Put shortly:
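Rice seedlings sprayed to run-off with 100 ppm compound suspension (6% acetone, 250 ppm surfactant), then inoculated next day with bran/mycelium of Rhizoctonia solani. After 7 days in a growth room, sheath blight disease was rated.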

Data set [1] concerns Pythium aphanadermatum. Put plainly: Pythium control on coated corn seeds. The format is in vivo. As to conditions: 504 h, 2 gm/kg seed, 49° F. 2 weeks then 70° F. 1 week. The protocol: Several compounds of the previous examples were incorporated into a proprietary formulation and used to coat corn seeds at a rate of 2 gm/kg seed. After being thoroughly coated, the seeds were allowed to air dry at room temperature. The seeds were then planted into soil amended with a mixture of the fungus Pythium aphanadermatum, sand, and corn meal at a rate sufficient to kill most untreated seeds. The seeds were held at 49° F. for 2 weeks and then at 70° F. for 1 additional week. After this time disease ratings were made.

For the next data set, the system named is cucumber seedlings. Briefly: phytotoxicity on cucumber seedlings. The format is in vivo. On the set-up: key: G: growth reduction; H: hormonal effects. As to conditions: 100 ppm.
Data set [2] has as its system Puccinia recondita var. tritici. Briefly: wheat leaf rust control on wheat seedlings. It is filed as in vivo. As to conditions: for pest or weed control at 100 ppm: sprayed day before inoculation. The gist of the method:
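Compounds at 100 ppm (6% acetone, 250 ppm polyhydric alcohol ester surfactant in water) sprayed to run-off on wheat seedlings; inoculated next day with P. recondita spores. Kept 24 h at saturated humidity, 20°, then 7 days in growth room before rust pustule rating.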

The test system of a further data set is Venturia inaequalis. Briefly: apple scab control on apple seedlings. It is filed as in vivo. As to conditions: Venturia inaequalis. Put shortly:
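Apple seedlings sprayed to run-off with 100 ppm compound suspension (6% acetone, 250 ppm TREM 014 surfactant). Inoculated next day with Venturia inaequalis spores; 24 hours at 20° in saturated humidity, then 10-12 days in growth room. Scab lesions compared with untreated plants.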

Data set [3] relates to Pythium aphanadermatum. Put plainly: Pythium control on coated cotton seeds. The format is in vivo. The conditions noted are these: 168 h, 2 gm/kg seed, 1 week. The source says:
Several compounds of the previous examples were incorporated into a proprietary formulation and used to coat cotton seeds at a rate of 2 gm/kg seed. After being thoroughly coated, the seeds were allowed to air dry at room temperature. The cotton seeds were then planted into soil amended with the fungus Pythium aphanadermatum, sand, and corn meal at a rate sufficient to kill most untreated seeds. The seeds were held at room temperature for 1 week, after which time disease ratings were made.

The next data set has as its system Monilinia fructicola. Put plainly: stone fruit brown rot colony growth inhibition on canned peach halves. It is filed as cell-based. As to conditions: 120 h, dipped 3 minutes, five days, percent growth inhibition of colonies, read-out: % Control Brown Rot. The text has this: Several compounds of the previous examples were again dissolved in acetone in an amount equal to 5% of the final volume and then suspended at a concentration of 100 ppm in purified water containing 700 ppm of the surfactant TREM 014 (polyhydric alcohol esters). Canned peach halves were dipped in this suspension for three minutes and then placed to air dry in sterile containers. Upon drying, the peach halves were inoculated with two pieces of Monilinia fructicola, causal agent of stone fruit brown rot, mycelium and then incubated in the sterile containers for five days. At that time the radii of the colonies' growth were measured on each peach. […] Percent disease contol (percent growth inhibition of colonies on treated peaches as compared to that of colonies on untreated peaches) is expressed in the table below.

In the next data set the test system is Erysiphe graminis. Put plainly: barley powdery mildew control on barley seedlings. It is filed as in vivo. As to conditions: Blumeria graminis, 168 h; for pest or weed control at 100 ppm: 7 days. The protocol:
Several compounds of the previous examples were again dissolved in acetone in an amount equal to 6% of the final volume and then suspended at a concentration of 100 ppm in purified water containing 250 ppm of the surfactant TREM 014 (polyhydric alcohol esters). This suspension was sprayed to the point of run-off on barley seedlings. The following day, the plants were inoculated with a spore suspension of the fungus Erysiphe graminis, causal agent of barley powdery mildew, and incubated in a growth room for 7 days. Disease ratings were then made. Treated plants had little or no powdery mildew in contrast to untreated plants which were covered with powdery mildew.

A further data set has as its system apple seedlings. Briefly: phytotoxicity on apple seedlings. It is filed as in vivo. On the set-up: key: B: Phytotoxic burn. As to conditions: 100 ppm. The protocol:
Compounds of this invention were dissolved in acetone in an amount equal to 6% of the final volume and then suspended at a concentration of 100 ppm in purified water containing 250 ppm of the surfactant TREM 014 (polyhydric alcohol esters). This suspension was sprayed to the point of run-off on apple seedlings. The following day, the plants were inoculated with a spore suspension of the fungus Venturia inaequalis, causal agent of apple scab, and incubated in a saturated humidity chamber at 20° for 24 hours and then in a growth room for an additional 10-12 days. Treated plants from successful treatments had few or no apple scab lesions when compared to untreated plants which were covered with scab lesions.

A further data set concerns 5 Phytophthora species. The format is cell-based. The conditions noted are these: 200.0 ppm in agar, 22° C., 6 days; controlled = radial growth 1 mm or less.

As for `C[Si](C)(Cn1ccnc1)c1ccc(F)cc1` [Dimethyl(4-fluorophenyl)(1H-imidazol-1-ylmethyl)silane], the pest or weed control at 100 ppm in the data set with Helminthosporium maydis stood at 0%; in the data set on Pyricularia oryzae, 0%; with Erysiphe cichoracearum, 100%; in the data set on Cercospora arachidicola, 60%; in the data set with Phytophthora infestans, 0%; in the data set on Rhizoctonia solani it was 0%. Moreover, the results for the pest or weed control at 100 ppm (in data set [2]; in the data set with Venturia inaequalis) were 80% and 0%, respectively. Besides, the Phytotoxic burn entry in the data set with peanut seedlings is “B”. In addition, the pest or weed control at 2000 mg/kg in the data set with Pythium aphanadermatum [1] worked out at 15%; in the data set with Pythium aphanadermatum [3], 0%. In addition, the “Phytotoxicity (growth reduction or hormonal effects)” value with cucumber seedlings was “G”.
In the case of `CCCC[Si](C)(Cn1ccnc1)c1ccc(Cl)cc1` (stereo not shown) [Butyl(4-chlorophenyl)(1H-imidazol-1-ylmethyl)methylsilane], the pest or weed control at 100 ppm in the data set on Helminthosporium maydis stood at 50%; in the data set with Pyricularia oryzae it was 0%; in the data set on Erysiphe cichoracearum it was 100%; in the data set with Cercospora arachidicola it was 0%; in the data set on Phytophthora infestans, 0%; with Rhizoctonia solani, 0%. The pest or weed control at 100 ppm in data set [2] amounted to 90%; in the data set with Venturia inaequalis it was 90%; in the data set with Erysiphe graminis, 100%. In the data set with Monilinia fructicola, the inhibition of growth at 100 ppm was 45%. Also, the pest or weed control at 2000 mg/kg in the data set with Pythium aphanadermatum [1] and in the data set with Pythium aphanadermatum [3] was 0% throughout. Besides, the “Phytotoxicity (growth reduction or hormonal effects)” value in the data set with cucumber seedlings is given as “G”.
As to `CCCC[Si](C)(Cn1ccnc1)c1ccc(Cl)cc1Cl` (stereo not shown) [Butyl(2,4-dichlorophenyl)(1H-imidazol-1-ylmethyl)methylsilane], the pest or weed control at 100 ppm is 80% in the data set with Helminthosporium maydis; 0% with Pyricularia oryzae; 100% with Erysiphe cichoracearum; 100% in the data set on Cercospora arachidicola; 0% with Phytophthora infestans; 90% with Rhizoctonia solani. Also, the pest or weed control at 100 ppm (in data set [2]; in the data set on Venturia inaequalis) was 100% in each case. Moreover, in the data set on apple seedlings, the Phytotoxic burn entry is reported as “B”. Moreover, the “Phytotoxicity (growth reduction or hormonal effects)” value with cucumber seedlings is recorded as “G”.
As to `CCCCCCCCCCCC[Si](C)(C)Cn1ccnc1` [Dodecyl(dimethyl)(1H-imidazol-1-ylmethyl)silane], the pest or weed control at 100 ppm in the data set with Helminthosporium maydis was determined as 0%; in the data set on Erysiphe cichoracearum, 55%; in the data set on Venturia inaequalis, 0%. The Phytotoxic burn result with apple seedlings is “B”. The same molecule returned a pest or weed control at 400 ppm in data set [2] of 80%. Moreover, in the data set on Erysiphe graminis (200 ppm), the pest or weed control at 200 ppm amounted to 100%.
Consider `C[Si](Cn1ccnc1)(c1ccccc1)c1ccc(Cl)cc1` (stereo not shown) [(4-Chlorophenyl)(1H-imidazol-1-ylmethyl)methyl(phenyl)silane], for which the pest or weed control at 100 ppm in the data set on Helminthosporium maydis turned out to be 0%; in the data set with Pyricularia oryzae, 0%; with Erysiphe cichoracearum, 100%; in the data set with Cercospora arachidicola, 100%; in the data set with Phytophthora infestans, 0%; in the data set with Rhizoctonia solani, 0%. Also, the pest or weed control at 100 ppm (in data set [2]; in the data set on Venturia inaequalis) was 100% throughout. Moreover, in the data set on Monilinia fructicola, the inhibition of growth at 100 ppm came out at 45%. For the same molecule, the “No. of 5 Phytophthora species controlled in vitro” value in the data set with 5 Phytophthora species was 0.
As for `C[Si](C)(Cn1ccnc1)c1ccc(Oc2ccccc2)cc1` [(1H-Imidazol-1-ylmethyl)dimethyl(4-phenoxyphenyl)silane], the pest or weed control at 100 ppm in the data set on Helminthosporium maydis turned out to be 0%; in the data set on Pyricularia oryzae, 70%; in the data set with Erysiphe cichoracearum, 100%; in the data set with Cercospora arachidicola it was 0%; in the data set on Phytophthora infestans it was 80%; in the data set on Rhizoctonia solani, 70%. The pest or weed control at 100 ppm is 60% in data set [2], 100% in the data set on Venturia inaequalis and 0% in the data set on Erysiphe graminis. Besides, the inhibition of growth at 100 ppm in the data set on Monilinia fructicola is 80%. Moreover, the pest or weed control at 2000 mg/kg in the data set with Pythium aphanadermatum [1] was found to be 5%; with Pythium aphanadermatum [3] it was 0%. Moreover, the “No. of 5 Phytophthora species controlled in vitro” value in the data set with 5 Phytophthora species is reported as 4.
For the molecule `C[Si](Cn1ccnc1)(c1ccccc1)c1ccc(F)cc1` (stereo not shown) [(4-Fluorophenyl)(1H-imidazol-1-ylmethyl)methyl(phenyl)silane], the pest or weed control at 100 ppm in the data set on Helminthosporium maydis was 80%; in the data set on Pyricularia oryzae, 100%; in the data set on Erysiphe cichoracearum, 100%; in the data set on Cercospora arachidicola, 100%; with Phytophthora infestans it was 0%; with Rhizoctonia solani, 90%. Moreover, the pest or weed control at 100 ppm stood at 0% in data set [2] and 100% in the data set with Venturia inaequalis. Further, in the data set with Monilinia fructicola, the inhibition of growth at 100 ppm was 65%. In the data set with 5 Phytophthora species, the “No. of 5 Phytophthora species controlled in vitro” value stood at 2.
Take `C[Si](C)(Cn1ccnc1)C1CCCCC1` [Cyclohexyl(dimethyl(1H-imidazol-1-ylmethyl)silane]: the pest or weed control at 100 ppm is 50% in the data set on Helminthosporium maydis; 100% with Erysiphe cichoracearum; 0% in the data set with Cercospora arachidicola; 0% in the data set on Rhizoctonia solani; 0% in [2]; 100% with Venturia inaequalis. The Phytotoxic burn result with apple seedlings is recorded as “B”. For the same molecule, the “Phytotoxicity (growth reduction or hormonal effects)” value in the data set with cucumber seedlings is “G”.
Turning to `C[Si](C)(Cn1ccnc1)c1ccc(C(F)(F)F)cc1` [Dimethyl(1H-imidazol-1-ylmethyl)(4-trifluoromethylphenyl)silane], in the data set on peanut seedlings, the Phytotoxic burn result is reported as “B”. In addition, the pest or weed control at 100 ppm was found to be 100% with Erysiphe cichoracearum, 36% in the data set on Cercospora arachidicola and 100% in the data set on Erysiphe graminis. The figures for the pest or weed control at 400 ppm (in data set [2]; in the data set with Venturia inaequalis (400 ppm)) were 100% and 60%, respectively.
